Columns and labels:
Assay in all cases: KINOMEscan competition binding
[1] = target: MAP3K12 (human) (UniProt Q12852); conditions: compound 10.0 µM
[2] = target: RPS6KA1 KD1 (human) (UniProt Q15418); conditions: compound 10.0 µM
[3] = target: MYLK3 (human) (UniProt Q32MK0); conditions: compound 10.0 µM
[4] = target: CDK19 (human) (UniProt Q9BWU1); conditions: compound 10.0 µM
[5] = system: ULK3 (mouse); conditions: compound 10.0 µM; accession and sequence are those of the human protein
[6] = target: CSNK1G2 (human) (UniProt P78368); conditions: compound 10.0 µM
[7] = target: MAP3K5 (human) (UniProt Q99683); conditions: compound 10.0 µM
Chain of MAP3K5 (human) (Q99683 whole entry, looked up): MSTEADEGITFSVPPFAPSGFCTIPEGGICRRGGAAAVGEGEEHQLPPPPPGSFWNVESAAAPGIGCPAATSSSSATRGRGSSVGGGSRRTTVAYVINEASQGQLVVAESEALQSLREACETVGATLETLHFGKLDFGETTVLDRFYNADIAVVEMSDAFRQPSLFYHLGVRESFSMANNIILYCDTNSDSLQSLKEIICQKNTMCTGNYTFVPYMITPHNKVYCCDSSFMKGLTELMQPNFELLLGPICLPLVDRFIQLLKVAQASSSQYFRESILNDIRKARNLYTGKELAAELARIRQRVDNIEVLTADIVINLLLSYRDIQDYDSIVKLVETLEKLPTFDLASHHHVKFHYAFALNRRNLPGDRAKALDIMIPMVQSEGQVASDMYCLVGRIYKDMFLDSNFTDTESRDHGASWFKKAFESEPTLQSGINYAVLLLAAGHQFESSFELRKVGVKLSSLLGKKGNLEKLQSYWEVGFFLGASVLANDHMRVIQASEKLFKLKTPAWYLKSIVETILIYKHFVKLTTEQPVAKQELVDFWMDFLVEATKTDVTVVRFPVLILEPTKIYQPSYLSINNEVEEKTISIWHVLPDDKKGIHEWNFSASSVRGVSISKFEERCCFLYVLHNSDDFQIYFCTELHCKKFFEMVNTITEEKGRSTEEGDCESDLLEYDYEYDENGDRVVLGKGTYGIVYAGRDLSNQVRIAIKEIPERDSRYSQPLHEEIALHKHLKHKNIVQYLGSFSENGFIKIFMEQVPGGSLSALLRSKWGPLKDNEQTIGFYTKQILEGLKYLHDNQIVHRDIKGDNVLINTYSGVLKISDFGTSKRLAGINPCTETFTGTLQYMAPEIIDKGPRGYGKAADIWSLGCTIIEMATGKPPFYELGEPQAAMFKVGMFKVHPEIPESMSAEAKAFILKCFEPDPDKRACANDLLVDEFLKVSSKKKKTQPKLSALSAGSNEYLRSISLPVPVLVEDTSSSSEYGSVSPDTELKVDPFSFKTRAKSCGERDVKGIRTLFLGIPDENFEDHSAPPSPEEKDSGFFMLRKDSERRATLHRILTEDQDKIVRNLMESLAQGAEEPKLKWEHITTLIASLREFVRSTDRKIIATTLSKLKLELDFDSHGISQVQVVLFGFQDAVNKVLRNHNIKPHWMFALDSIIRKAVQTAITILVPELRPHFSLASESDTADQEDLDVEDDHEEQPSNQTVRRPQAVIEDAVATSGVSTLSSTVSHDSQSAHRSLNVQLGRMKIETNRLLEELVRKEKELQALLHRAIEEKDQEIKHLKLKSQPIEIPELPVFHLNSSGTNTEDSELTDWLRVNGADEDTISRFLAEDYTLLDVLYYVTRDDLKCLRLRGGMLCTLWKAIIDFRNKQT

Chain of RPS6KA1 KD1 (human) (Q15418 whole entry, looked up): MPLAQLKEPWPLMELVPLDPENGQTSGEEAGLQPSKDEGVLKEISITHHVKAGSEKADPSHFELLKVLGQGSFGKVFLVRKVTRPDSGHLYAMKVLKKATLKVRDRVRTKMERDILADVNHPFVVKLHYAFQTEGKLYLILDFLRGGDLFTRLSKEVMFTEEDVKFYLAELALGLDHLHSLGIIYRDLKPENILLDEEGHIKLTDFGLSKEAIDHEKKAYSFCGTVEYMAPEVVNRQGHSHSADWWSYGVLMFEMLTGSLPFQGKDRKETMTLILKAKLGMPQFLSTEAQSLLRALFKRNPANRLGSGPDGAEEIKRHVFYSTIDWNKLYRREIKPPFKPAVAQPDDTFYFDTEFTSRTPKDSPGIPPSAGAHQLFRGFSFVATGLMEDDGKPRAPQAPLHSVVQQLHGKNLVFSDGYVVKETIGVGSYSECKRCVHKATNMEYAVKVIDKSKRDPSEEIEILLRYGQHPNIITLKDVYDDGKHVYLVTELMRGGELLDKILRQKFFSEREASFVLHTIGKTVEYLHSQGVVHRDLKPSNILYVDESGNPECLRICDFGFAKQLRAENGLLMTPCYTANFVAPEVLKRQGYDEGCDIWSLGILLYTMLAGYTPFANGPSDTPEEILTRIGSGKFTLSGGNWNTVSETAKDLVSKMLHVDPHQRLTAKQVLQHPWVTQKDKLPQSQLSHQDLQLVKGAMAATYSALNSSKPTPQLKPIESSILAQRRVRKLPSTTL
Chain of MAP3K12 (human) (Q12852 whole entry, looked up): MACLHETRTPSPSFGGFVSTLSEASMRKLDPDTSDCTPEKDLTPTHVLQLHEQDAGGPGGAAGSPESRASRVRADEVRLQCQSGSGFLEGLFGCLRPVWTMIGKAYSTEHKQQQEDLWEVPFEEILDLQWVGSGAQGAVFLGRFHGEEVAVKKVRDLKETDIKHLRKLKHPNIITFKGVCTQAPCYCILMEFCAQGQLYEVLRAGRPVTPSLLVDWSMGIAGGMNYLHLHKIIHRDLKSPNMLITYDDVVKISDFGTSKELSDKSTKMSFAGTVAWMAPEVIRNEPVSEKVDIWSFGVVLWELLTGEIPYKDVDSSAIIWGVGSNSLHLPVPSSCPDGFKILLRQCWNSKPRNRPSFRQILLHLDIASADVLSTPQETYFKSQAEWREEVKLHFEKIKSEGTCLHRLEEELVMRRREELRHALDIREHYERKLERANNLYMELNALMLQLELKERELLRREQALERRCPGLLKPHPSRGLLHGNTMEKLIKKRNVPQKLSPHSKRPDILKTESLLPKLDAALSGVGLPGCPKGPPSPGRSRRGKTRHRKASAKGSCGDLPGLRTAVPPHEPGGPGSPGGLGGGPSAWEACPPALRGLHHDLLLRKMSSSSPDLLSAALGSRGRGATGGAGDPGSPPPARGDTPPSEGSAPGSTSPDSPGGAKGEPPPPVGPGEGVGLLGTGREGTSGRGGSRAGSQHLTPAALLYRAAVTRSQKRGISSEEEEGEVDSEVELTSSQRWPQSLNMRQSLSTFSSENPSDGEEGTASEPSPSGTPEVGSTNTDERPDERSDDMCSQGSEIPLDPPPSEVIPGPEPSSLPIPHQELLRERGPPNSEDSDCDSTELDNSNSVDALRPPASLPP
Chain of CDK19 (human) (Q9BWU1 whole entry, looked up): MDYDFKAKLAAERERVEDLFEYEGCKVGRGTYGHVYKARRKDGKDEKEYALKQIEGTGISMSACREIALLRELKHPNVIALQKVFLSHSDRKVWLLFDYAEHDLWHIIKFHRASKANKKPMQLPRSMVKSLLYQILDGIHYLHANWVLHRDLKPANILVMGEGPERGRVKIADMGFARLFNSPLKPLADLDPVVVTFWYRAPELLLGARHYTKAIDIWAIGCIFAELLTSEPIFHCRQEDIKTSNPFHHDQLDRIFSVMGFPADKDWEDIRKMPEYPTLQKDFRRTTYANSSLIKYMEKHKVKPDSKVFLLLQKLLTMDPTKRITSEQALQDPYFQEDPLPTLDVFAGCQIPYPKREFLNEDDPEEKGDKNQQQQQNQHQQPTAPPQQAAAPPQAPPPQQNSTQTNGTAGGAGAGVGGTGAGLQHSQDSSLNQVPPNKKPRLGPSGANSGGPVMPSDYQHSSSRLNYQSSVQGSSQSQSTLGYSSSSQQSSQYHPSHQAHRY
Chain of MYLK3 (human) (Q32MK0 whole entry, looked up): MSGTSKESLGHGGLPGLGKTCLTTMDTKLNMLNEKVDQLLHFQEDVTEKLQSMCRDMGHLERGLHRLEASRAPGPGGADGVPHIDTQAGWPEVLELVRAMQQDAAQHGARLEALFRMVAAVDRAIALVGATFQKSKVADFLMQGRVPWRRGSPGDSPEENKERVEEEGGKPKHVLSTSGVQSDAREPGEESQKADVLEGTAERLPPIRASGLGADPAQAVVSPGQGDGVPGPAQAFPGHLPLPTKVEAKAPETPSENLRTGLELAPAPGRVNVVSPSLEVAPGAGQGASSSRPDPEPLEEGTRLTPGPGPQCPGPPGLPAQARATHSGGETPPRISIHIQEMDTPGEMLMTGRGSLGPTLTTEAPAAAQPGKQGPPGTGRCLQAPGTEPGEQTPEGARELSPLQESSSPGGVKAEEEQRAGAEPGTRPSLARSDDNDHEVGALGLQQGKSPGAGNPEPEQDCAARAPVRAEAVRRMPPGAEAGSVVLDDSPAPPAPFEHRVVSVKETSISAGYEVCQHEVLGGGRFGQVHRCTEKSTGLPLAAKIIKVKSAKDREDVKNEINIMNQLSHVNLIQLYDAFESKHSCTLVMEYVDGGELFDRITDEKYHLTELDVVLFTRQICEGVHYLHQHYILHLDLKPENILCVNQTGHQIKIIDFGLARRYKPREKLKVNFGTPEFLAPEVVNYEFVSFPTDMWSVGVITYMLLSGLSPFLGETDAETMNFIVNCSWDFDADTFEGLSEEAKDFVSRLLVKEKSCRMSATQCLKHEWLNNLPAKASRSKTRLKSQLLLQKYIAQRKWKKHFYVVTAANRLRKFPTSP
Chain of CSNK1G2 (human) (P78368 whole entry, looked up): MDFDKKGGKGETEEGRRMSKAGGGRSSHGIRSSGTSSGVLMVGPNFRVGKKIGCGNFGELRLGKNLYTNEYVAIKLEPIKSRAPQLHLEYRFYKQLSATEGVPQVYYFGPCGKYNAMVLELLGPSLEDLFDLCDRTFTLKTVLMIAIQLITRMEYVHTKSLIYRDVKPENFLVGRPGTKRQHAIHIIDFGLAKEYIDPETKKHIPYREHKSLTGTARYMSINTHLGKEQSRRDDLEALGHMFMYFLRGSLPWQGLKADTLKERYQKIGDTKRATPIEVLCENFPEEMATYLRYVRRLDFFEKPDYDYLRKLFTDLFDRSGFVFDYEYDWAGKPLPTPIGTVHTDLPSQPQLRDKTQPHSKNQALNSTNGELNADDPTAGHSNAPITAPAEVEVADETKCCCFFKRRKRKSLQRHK

inhibition [1] | inhibition of binding [2] | inhibition of binding [5] | SMILES | other results
< 50% | < 50% | – | O[C@H]1CC[C@H](Nc2nccc(-n3ncc4ccccc43)n2)CC1 | inhibition of binding [3]: < 50%; inhibition [4]: < 50%
– | – | < 50% | O=C([C@H]1CC[C@H](Nc2nccc(-n3nnc4ccccc43)n2)CC1)N1CCOCC1 | –
< 50% | < 50% | – | O[C@H]1CC[C@H](Nc2nccc(-n3nnc4ccccc43)n2)CC1 | inhibition of binding [6]: < 50%
< 50% | < 50% | – | O[C@H]1CC[C@H](Nc2nccc(-n3ccc4ccccc43)n2)CC1 | –
– | – | – | O[C@H]1CC[C@H](Nc2nccc(-c3n[nH]c4ccccc34)n2)CC1 | inhibition of binding [7]: < 50%
– | – | < 50% | N[C@H]1CC[C@H](Nc2nccc(-n3nnc4ccccc43)n2)CC1 | –

Source: the kinase profiling compilation of Christmann-Franck et al. (2016)
